The text below walks through data of patent US9512116B2, “Compounds that modulate intracellular calcium” (CALCIMEDICA, INC., priority 2012, dated 2016).

The target in one test is T1, Orai1/STIM1 (Homo sapiens, UniProt Q96D31).
T1 construct: expressed in transfected cells; host or cells: HEK-293
In words: Fluorescence-based assay of store-operated calcium entry in Orai1/STIM1 stable cells. The format is cell-based. The following applies: HEK-293 cells stably expressing human STIM1 and Orai1, Peak-Basal signal, read-out: Orail/STIM1 (IC50, μmol). An excerpt: Fluorescence-based assays are used for screening the compounds described herein, such as compounds of Formulas (I), (II), (III), (IV) or (V) which modulate intracellular calcium.
A. Fluorescence-Based Assay of Store-Operated Calcium Entry in Orai1/STIM1 Stable Cells.
Cells stably expressing recombinant human STIM1 and Orai1 are generated by transfecting a human Orai1 expression plasmid (pcDNA3.1-Orai1-cmyc) into HEK-293 cells stably overexpressing human STIM1 (Roos et al. 2005 JCB 169(3): 435-445). Colonies of cells stably expressing both STIM1 and Orai1 proteins are selected and then subcloned by limiting dilution. Cells were cultured at 37° C./6% CO2 in complete medium with 10% FBS and appropriate selection markers.
The day prior to performing the assay Orai1/STIM1 stable cells are plated in 50 μL of complete medium at 90-95% confluence in a 384 well plate. Cells are grown at 37° C./6% CO2 overnight. On the day of the assay, 1.5 μM fluo-4-AM (Invitrogen) in complete medium is added to the cells, which are then incubated for 1 hour at RT. Cells are washed once in Ca^2+-free HBSS (Hank's buffered saline solution) and 35 μl of Ca^2+-free HBSS is added to each well. Test compounds are added to wells in a 10 μL Ca^2+-free HBSS solution, prepared at 4.5× the desired final concentration, and incubated for 30 minutes at RT. The initial baseline fluorescence signal is then measured with a FLIPR^384 (Molecular Devices) plate reader. Calcium entry is initiated by adding 5 μl of 10×CaCl2 (10 mM) in HBSS, and changes in cellular fluorescence are measured with the FLIPR^384 plate reader. In each well, the magnitude of the fluorescence signal as a result of calcium entry into the cell is determined by calculating the difference between the peak fluorescence signal measured after calcium addition and the initial baseline fluorescence signal (designated Peak-Basal). IC50 values are typically calculated as the concentration that inhibited 50% of the Peak-Basal signal.

The test system of another test is RBL-2H3 cells. In words: Fluorescence-based assay of store-operated calcium entry in RBL-2H3 cells. The format is cell-based. The following applies: Rattus norvegicus, thapsigargin, Upslope, read-out: RBL-2H3 (IC50, μmol). Here is the method:
B. Fluorescence-Based Assay of Store-Operated Calcium Entry in RBL-2H3 Cells.
RBL-2H3 cells are obtained from ATCC and maintained in complete medium with 10% FBS at 37° C./6% CO2.
The day prior to performing the assay, RBL-2H3 cells are plated in 50 μl of complete medium in a 384 well plate. Cells are grown at 37° C./6% CO2 overnight and grow to 50-60% confluence by the next day. On the assay day, 1.5 μM Fluo-4-AM dye (Invitrogen) in complete medium is added and incubated for 1 hour at RT. Cells are washed twice in Ca^2+-free HBSS buffer and 35 μL Ca^2+-free HBSS buffer is added to each well. 10 μL of a test compound prepared in a Ca^2+-free HBSS solution at 4.5× of the desired concentration is added to a well and incubated for 5 minutes at RT. 10 μL of thapsigargin prepared in a Ca^2+-free HBSS solution at 5.5× of the desired concentration (5.5 uM) is added to each well and incubated for an additional 25 minutes. The initial baseline fluorescence signal is measured with a FLIPR^384 (Molecular Devices) plate reader. 5 μL of 12× calcium in HBSS (12 mM) is added and changes in cellular fluorescence are measured with the FLIPR^384 plate reader. In each well, the change in the fluorescent signal as a function of time due to calcium entry into the cell is determined by calculating the difference between the fluorescent signal measured 7 seconds after calcium addition and the initial baseline fluorescence signal at time zero (t=0). This parameter is designated Upslope. The IC50 value is calculated as the concentration at which 50% of the Upslope is inhibited.

Like-named read-outs stand apart in the source and are kept apart here. Bounds are passed on as bounds.

T1 sequence (Q96D31 whole entry): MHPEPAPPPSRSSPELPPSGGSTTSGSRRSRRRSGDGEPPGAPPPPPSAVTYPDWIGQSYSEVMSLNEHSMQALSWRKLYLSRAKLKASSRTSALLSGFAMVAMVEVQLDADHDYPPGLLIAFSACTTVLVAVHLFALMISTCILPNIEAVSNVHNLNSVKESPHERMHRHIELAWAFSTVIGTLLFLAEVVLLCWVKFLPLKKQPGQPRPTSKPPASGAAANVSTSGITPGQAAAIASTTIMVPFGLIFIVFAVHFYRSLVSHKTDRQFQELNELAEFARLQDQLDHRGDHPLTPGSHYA

Take `Cn1nc(-c2nccs2)cc1-c1ccc(NC(=O)c2c(F)cccc2F)s1` [Compound 6, (2,6-difluorophenyl)-N-[5-[1-methyl-3-(1,3-thiazol-2-yl)pyrazol-5-yl](2-thienyl)]carboxamide]: on Orai1/STIM1 (Table IV), the IC50 was < 0.6 µM.
On the same count and under the same terms, next, `Cn1nc(-c2nccs2)cc1-c1ccc(NC(=O)c2ccc(F)cc2F)s1` [Compound 7, (2,4-difluorophenyl)-N-[5-[1-methyl-3-(1,3-thiazol-2-yl)pyrazol-5-yl](2-thienyl)]carboxamide]: < 0.6 µM; `Cn1nc(-c2nccs2)cc1-c1ccc(NC(=O)c2c(F)cc(F)cc2F)s1` [Compound 10, (2,4,6-trifluorophenyl)-N-[5-[1-methyl-3-(1,3-thiazol-2-yl)pyrazol-5-yl](2-thienyl)]carboxamide]: < 0.6 µM.
For `Cc1oc(C(F)(F)F)nc1-c1ccc(NC(=O)c2c(F)cccc2F)nc1` [Compound 14, 2,6-difluoro-N-(5-(5-methyl-2-(trifluoromethyl)oxazol-4-yl)pyridin-2-yl)benzamide], the IC50 on Orai1/STIM1 (Table III) was < 0.6 µM.
As to `CCn1nc(-c2nccs2)cc1-c1ccc(NC(=O)c2c(F)cccc2F)s1` [Compound 15], the IC50 at Orai1/STIM1 (Table IV) is 0.6 to 1.2 µM.
With `Cc1ccccc1C(=O)Nc1ccc(-c2nc(C(F)(F)F)oc2C)cn1` [Compound 15], the IC50 at Orai1/STIM1 (Table III) was < 0.6 µM.
With `CCn1nc(-c2nccs2)cc1-c1ccc(NC(=O)c2c(F)cc(F)cc2F)s1` [Compound 16], the IC50 on Orai1/STIM1 (Table IV) is 0.6 to 1.2 µM.
On to `Cc1oc(C(F)(F)F)nc1-c1ccc(NC(=O)c2ccccc2F)nc1` [Compound 16], for which, at Orai1/STIM1 (Table III), the IC50 was < 0.6 µM.
The same measure, in the same setting: the same measure for `Cc1oc(C(F)(F)F)nc1-c1ccc(NC(=O)c2c(F)cncc2F)nc1` [Compound 17, 3,5-difluoro-N-(5-(5-methyl-2-(trifluoromethyl)oxazol-4-yl)pyridin-2-yl)isonicotinamide]: < 0.6 µM; for `Cc1oc(C(F)(F)F)nc1-c1ccc(NC(=O)c2cccc(F)c2C)nc1` [Compound 19, 3-fluoro-2-methyl-N-(5-(5-methyl-2-(trifluoromethyl)oxazol-4-yl)pyridin-2-yl)benzamide]: < 0.6 µM.
`Cn1nc(-c2ccccc2F)cc1-c1ccc(NC(=O)c2c(F)cc(F)cc2F)s1` [Compound 20]: the IC50 at Orai1/STIM1 (Table IV) and in the test with RBL-2H3 cells (Table IV) was < 0.6 µM in each case.
`Cc1cccc(F)c1C(=O)Nc1ccc(-c2nc(C(F)(F)F)oc2C)cn1` [Compound 21]: the IC50 on Orai1/STIM1 (Table III) and in the test on RBL-2H3 cells (Table III) was < 0.6 µM each time.
For the molecule `Cn1nc(-c2ccccc2F)cc1-c1ccc(NC(=O)c2c(F)ccc(F)c2F)s1` [Compound 21], the IC50 on Orai1/STIM1 (Table IV) and with RBL-2H3 cells (Table IV) was 0.6 to 1.2 µM in each case.
In the case of `Cn1nc(-c2ccccc2F)cc1-c1ccc(NC(=O)c2c(F)cccc2F)s1` [Compound 22], the IC50 at Orai1/STIM1 (Table IV) and with RBL-2H3 cells (Table IV) was < 0.6 µM throughout.
Take `CCc1oc(C(F)(F)F)nc1-c1ccc(NC(=O)c2ccccc2F)nc1` [Compound 24, N-(5-(5-ethyl-2-(trifluoromethyl)oxazol-4-yl)pyridin-2-yl)-2-fluorobenzamide]: at Orai1/STIM1 (Table III), the IC50 was < 0.6 µM.
For the molecule `CCc1oc(C(F)(F)F)nc1-c1ccc(NC(=O)c2c(F)cccc2F)nc1` [Compound 25, N-(5-(5-ethyl-2-(trifluoromethyl)oxazol-4-yl)pyridin-2-yl)-2,6-difluorobenzamide], the IC50 at Orai1/STIM1 (Table III) was < 0.6 µM.
Consider `Cn1nc(-c2ccccn2)cc1-c1ccc(NC(=O)c2c(F)cc(F)cc2F)s1` [Compound 27, 2,4,6-trifluoro-N-(5-(1-methyl-3-(pyridin-2-yl)-1H-pyrazol-5-yl)thiophen-2-yl)benzamide], for which the IC50 on Orai1/STIM1 (Table IV) was 0.6 to 1.2 µM.
For `Cn1nc(-c2ccccn2)cc1-c1ccc(NC(=O)c2c(F)cccc2F)s1` [Compound 28, 2,6-difluoro-N-(5-(1-methyl-3-(pyridin-2-yl)-1H-pyrazol-5-yl)thiophen-2-yl)benzamide], on Orai1/STIM1 (Table IV), the IC50 was < 0.6 µM.
